Tests used:
[1] = test system: Hepatotoxicity;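 on HepSE Combined Scores: combined hepatic side effect score as listed in the training data of the Drug Induced Liver Injury Prediction System (DILIps)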;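 on HepSE cholelithiasis: hepatic side effect score for cholelithiasis, drawn from the DILIps training data for predicting drug-induced liver injury; call rule not given here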;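 on HepSE cirrhosis: cirrhosis hepatic side effect score taken from the DILIps (drug-induced liver injury prediction) training set; call rule not given here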; on HepSE hepatic failure: call rule not given here;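 on HepSE hepatic necrosis: score of hepatic side effects for hepatic necrosis, drawn from the training data of DILIps, a prediction system for drug-induced liver injury; call rule not given here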;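 on HepSE hepatomegaly: hepatic side effect score for hepatomegaly, taken from the training set of the DILIps drug-induced liver injury prediction system; call rule not given here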;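 on HepSE jaundice: Jaundice-related hepatic side-effect score drawn from the training data of the DILIps (drug-induced liver injury prediction system); call rule not given here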; on HepSE liver disease: call rule not given here
[2] = test system: Hepatotoxicity; remark: listed apart in the source;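 on HepSE Combined Scores: combined hepatic side effect score as listed in the training data of the Drug Induced Liver Injury Prediction System (DILIps)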;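 on HepSE cholelithiasis: hepatic side effect score for cholelithiasis, drawn from the DILIps training data for predicting drug-induced liver injury; call rule not given here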;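 on HepSE cirrhosis: cirrhosis hepatic side effect score taken from the DILIps (drug-induced liver injury prediction) training set; call rule not given here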; on HepSE hepatic failure: call rule not given here;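 on HepSE hepatomegaly: hepatic side effect score for hepatomegaly, taken from the training set of the DILIps drug-induced liver injury prediction system; call rule not given here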;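 on HepSE jaundice: Jaundice-related hepatic side-effect score drawn from the training data of the DILIps (drug-induced liver injury prediction system); call rule not given here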; on HepSE liver disease: call rule not given here
[3] = test system: Hepatotoxicity; remark: listed apart in the source;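 on HepSE Combined Scores: combined hepatic side effect score as listed in the training data of the Drug Induced Liver Injury Prediction System (DILIps)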;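 on HepSE cholelithiasis: hepatic side effect score for cholelithiasis, drawn from the DILIps training data for predicting drug-induced liver injury; call rule not given here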;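 on HepSE cirrhosis: cirrhosis hepatic side effect score taken from the DILIps (drug-induced liver injury prediction) training set; call rule not given here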; on HepSE hepatic failure: call rule not given here;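 on HepSE hepatomegaly: hepatic side effect score for hepatomegaly, taken from the training set of the DILIps drug-induced liver injury prediction system; call rule not given here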;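 on HepSE jaundice: Jaundice-related hepatic side-effect score drawn from the training data of the DILIps (drug-induced liver injury prediction system); call rule not given here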; on HepSE liver disease: call rule not given here
[4] = test system: Hepatotoxicity; remark: listed apart in the source;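 on HepSE Combined Scores: combined hepatic side effect score as listed in the training data of the Drug Induced Liver Injury Prediction System (DILIps)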;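 on HepSE cholelithiasis: hepatic side effect score for cholelithiasis, drawn from the DILIps training data for predicting drug-induced liver injury; call rule not given here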;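 on HepSE cirrhosis: cirrhosis hepatic side effect score taken from the DILIps (drug-induced liver injury prediction) training set; call rule not given here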; on HepSE hepatic failure: call rule not given here;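 on HepSE hepatomegaly: hepatic side effect score for hepatomegaly, taken from the training set of the DILIps drug-induced liver injury prediction system; call rule not given here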;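 on HepSE jaundice: Jaundice-related hepatic side-effect score drawn from the training data of the DILIps (drug-induced liver injury prediction system); call rule not given here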; on HepSE liver disease: call rule not given here
[5] = test system: Hepatotoxicity; remark: listed apart in the source; on HepSE hepatic failure: call rule not given here; on HepSE liver disease: call rule not given here
[6] = test system: Hepatotoxicity; remark: listed apart in the source; on HepSE hepatic failure: call rule not given here; on HepSE liver disease: call rule not given here
[7] = test system: Hepatotoxicity; remark: listed apart in the source
[8] = test system: Hepatotoxicity; remark: listed apart in the source
[9] = test system: Hepatotoxicity; remark: listed apart in the source
[10] = test system: Hepatotoxicity; remark: listed apart in the source
[11] = test system: Hepatotoxicity; remark: listed apart in the source
[12] = test system: Hepatotoxicity; remark: listed apart in the source
[13] = test system: Hepatotoxicity; remark: listed apart in the source
[14] = test system: Hepatotoxicity; remark: listed apart in the source

Row | SMILES | HepSE_liver disease [1] | HepSE_cholelithiasis [2] | HepSE_jaundice [3] | HepSE_hepatic failure [4] | HepSE_liver fatty [5] | HepSE_cirrhosis [6] | HepSE_hepatomegaly [7] | HepSE_Combined Scores [8] | HepSE_hepatic necrosis [9] | HepSE_elevated liver function tests [10] | HepSE_cholecystitis [11] | HepSE_bilirubinemia [12] | HepSE_hepatitis [13] | HepSE_liver function tests abnormal [14] | other results
1 | C[C@H]1C[C@H]2[C@@H]3CCC4=CC(=O)C=C[C@]4(C)[C@@]3(F)[C@@H](O)C[C@]2(C)[C@@]1(O)C(=O)CCl [CLOBETASOL] | 0 | 0 | 0 | 0 | 0 | 0 | 0 | 0 | 0 | 0 | 0 | 0 | 0 | 0 | –
2 | O=P(O)(O)C(Cl)(Cl)P(=O)(O)O [CLODRONIC ACID] | 1 | 0 | 0 | 0 | 0 | 0 | 0 | 1 | 0 | 0 | 0 | 0 | 0 | 0 | –
3 | Nc1nc(Cl)nc2c1ncn2[C@@H]1O[C@H](CO)[C@@H](O)[C@@H]1F [CLOFARABINE] | 0 | 0 | 1 | 0 | 0 | 0 | 1 | 3 | 0 | 0 | 0 | 1 | 0 | 0 | –
4 | CC(C)/N=c1\cc2n(-c3ccc(Cl)cc3)c3ccccc3nc-2cc1Nc1ccc(Cl)cc1 [CLOFAZIMINE] | 0 | 0 | 1 | 0 | 0 | 0 | 1 | 3 | 0 | 0 | 0 | 0 | 1 | 0 | –
5 | CN(C)CCCN1c2ccccc2CCc2ccc(Cl)cc21 [CLOMIPRAMINE] | 0 | 0 | 0 | 0 | 0 | 0 | 0 | 1 | 0 | 0 | 0 | 0 | 1 | 0 | –
6 | O=C1CN=C(c2ccccc2Cl)c2cc([N+](=O)[O-])ccc2N1 [CLONAZEPAM] | 0 | 0 | 0 | 0 | 0 | 0 | 1 | 1 | 0 | 0 | 0 | 0 | 0 | 0 | –
7 | Clc1cccc(Cl)c1N=C1NCCN1 [CLONIDINE] | – | – | – | – | – | – | – | – | – | – | – | – | – | – | HepSE_liver disease ([1]; Liver): 0; HepSE_cholelithiasis ([2]; Liver): 0; HepSE_jaundice ([3]; Liver): 0; HepSE_hepatic failure ([4]; Liver): 0; HepSE_liver fatty ([5]; Liver): 0; HepSE_cirrhosis ([6]; Liver): 0; HepSE_hepatomegaly ([7]; Liver): 0; HepSE_Combined Scores ([8]; Liver): 1; HepSE_hepatic necrosis ([9]; Liver): 0; HepSE_elevated liver function tests ([10]; Liver): 0; HepSE_cholecystitis ([11]; Liver): 0; HepSE_bilirubinemia ([12]; Liver): 0; HepSE_hepatitis ([13]; Liver): 1; HepSE_liver function tests abnormal ([14]; Liver): 0
8 | COC(=O)[C@H](c1ccccc1Cl)N1CCc2sccc2C1 [CLOPIDOGREL] | – | – | – | – | – | – | – | – | – | – | – | – | – | – | HepSE_liver disease ([1]; Liver): 0; HepSE_cholelithiasis ([2]; Liver): 0; HepSE_jaundice ([3]; Liver): 0; HepSE_hepatic failure ([4]; Liver): 1; HepSE_liver fatty ([5]; Liver): 1; HepSE_cirrhosis ([6]; Liver): 0; HepSE_hepatomegaly ([7]; Liver): 0; HepSE_Combined Scores ([8]; Liver): 4; HepSE_hepatic necrosis ([9]; Liver): 0; HepSE_elevated liver function tests ([10]; Liver): 0; HepSE_cholecystitis ([11]; Liver): 0; HepSE_bilirubinemia ([12]; Liver): 1; HepSE_hepatitis ([13]; Liver): 1; HepSE_liver function tests abnormal ([14]; Liver): 0
9 | Clc1ccccc1C(c1ccccc1)(c1ccccc1)n1ccnc1 [CLOTRIMAZOLE] | 0 | 0 | 0 | 0 | 0 | 0 | 0 | 1 | 0 | 0 | 0 | 0 | 0 | 1 | –
10 | CN1CCN(C2=Nc3cc(Cl)ccc3Nc3ccccc32)CC1 [CLOZAPINE] | 0 | 0 | 1 | 0 | 0 | 0 | 0 | 2 | 0 | 0 | 0 | 0 | 1 | 0 | –
11 | C[C@]12CCC(=O)C=C1CC[C@@H]1[C@@H]2C(=O)C[C@@]2(C)[C@H]1CC[C@]2(O)C(=O)CO [CORTISONE] | 0 | 0 | 0 | 0 | 0 | 0 | 0 | 0 | 0 | 0 | 0 | 0 | 0 | 0 | –
12 | O=C(O)c1cc(=O)c2c(OCC(O)COc3cccc4oc(C(=O)O)cc(=O)c34)cccc2o1 [CROMOLYN] | 1 | 0 | 0 | 0 | 0 | 0 | 0 | 1 | 0 | 0 | 0 | 0 | 0 | 0 | –
13 | CN(C)CCC=C1c2ccccc2C=Cc2ccccc21 [CYCLOBENZAPRINE] | – | – | – | – | – | – | – | – | – | – | – | – | – | – | HepSE_liver disease ([1]; Liver): 0; HepSE_cholelithiasis ([2]; Liver): 0; HepSE_jaundice ([3]; Liver): 1; HepSE_hepatic failure ([4]; Liver): 0; HepSE_liver fatty ([5]; Liver): 0; HepSE_cirrhosis ([6]; Liver): 0; HepSE_hepatomegaly ([7]; Liver): 0; HepSE_Combined Scores ([8]; Liver): 2; HepSE_hepatic necrosis ([9]; Liver): 0; HepSE_elevated liver function tests ([10]; Liver): 0; HepSE_cholecystitis ([11]; Liver): 0; HepSE_bilirubinemia ([12]; Liver): 0; HepSE_hepatitis ([13]; Liver): 1; HepSE_liver function tests abnormal ([14]; Liver): 0
14 | CN(C)CCOC(=O)C(c1ccccc1)C1(O)CCCC1 (configuration not stated) [CYCLOPENTOLATE] | 0 | 0 | 0 | 0 | 0 | 0 | 0 | 0 | 0 | 0 | 0 | 0 | 0 | 0 | –
15 | O=P1(N(CCCl)CCCl)NCCCO1 (configuration not stated) [CYCLOPHOSPHAMIDE ANHYDROUS] | – | – | – | – | – | – | – | – | – | – | – | – | – | – | HepSE_liver disease ([1]; Liver): 0; HepSE_cholelithiasis ([2]; Liver): 0; HepSE_jaundice ([3]; Liver): 1; HepSE_hepatic failure ([4]; Liver): 0; HepSE_liver fatty ([5]; Liver): 0; HepSE_cirrhosis ([6]; Liver): 0; HepSE_hepatomegaly ([7]; Liver): 1; HepSE_Combined Scores ([8]; Liver): 3; HepSE_hepatic necrosis ([9]; Liver): 0; HepSE_elevated liver function tests ([10]; Liver): 0; HepSE_cholecystitis ([11]; Liver): 0; HepSE_bilirubinemia ([12]; Liver): 1; HepSE_hepatitis ([13]; Liver): 0; HepSE_liver function tests abnormal ([14]; Liver): 0
16 | N[C@@H]1CON=C1O [CYCLOSERINE] | 1 | 0 | 0 | 0 | 0 | 0 | 0 | 1 | 0 | 0 | 0 | 0 | 0 | 0 | –
17 | CN1CCC(=C2c3ccccc3C=Cc3ccccc32)CC1 [CYPROHEPTADINE] | 0 | 0 | 1 | 1 | 0 | 0 | 0 | 3 | 0 | 0 | 0 | 0 | 1 | 0 | –
18 | CC(=O)[C@@]1(O)CC[C@H]2[C@@H]3C=C(Cl)C4=CC(=O)[C@@H]5C[C@@H]5[C@]4(C)[C@H]3CC[C@@]21C [CYPROTERONE] | 0 | 0 | 1 | 1 | 0 | 1 | 1 | 6 | 1 | 0 | 0 | 0 | 1 | 0 | –

Reference: ChEMBL document CHEMBL1909294, “Translating clinical findings into knowledge in drug safety evaluation--drug induced liver injury prediction system (DILIps)” (PLoS Comput Biol, 2011)
